Measured values as given in publication PMC12477080, “Polychlorinated biphenyls (PCBs) interact with drug metabolism in vivo” (Archives of Toxicology, 2025).

Assays:
[1] = system: CYP2D6; test: CYP phenotyping cocktail clinical study: metoprolol/α-OH-metoprolol metabolic ratio and its association with PCB plasma levels; details: linear regression of MR AUC0–8 h α-OH-metoprolol/metoprolol (CYP2D6 activity) on PCB plasma concentration
Protocol: The participants were ascertained not to have any acute disease by medical history, physical examination, laboratory screening, including hematological and biochemical blood tests, and a 12-lead electrocardiogram. […] The demographic data of the subjects are summarized in Table 1 in the supplemental data. At the enrollment visit, 2 blood samples (9 ml each) were collected into ethylenediaminetetraacetic acid (EDTA)-containing tubes taken from each subject for analyzing the plasma concentrations of PCB congeners and for pharmacogenetic analysis.
Participants stayed fasted from the evening before until 3 h after drug administration. After that, a meal was provided. Water and juice were permitted but alcoholic and caffeinated beverages were not allowed from the evening before drug administration until the last blood sample was taken on the next day. Venous blood samples (9 ml each) were collected through an intravenous catheter immediately before and 0.25, 0.5, 0.75, 1, 1.5, 2, 2.5, 3, 4, 5, 6, 7, 8, and 24 h after drug administration. Blood was drawn into EDTA-coated tubes, centrifuged at 1500 g for 10 min at 4 °C, and plasma samples were subsequently stored at − 80 °C until further analysis. After completely voiding the bladder immediately before drug administration, the participants collected urine from 0 to 24 h after drug administration. After weighing the collected urine, a 10 ml aliquot of each fraction was taken.
Commercially sourced standards and internal standards were used for quantification (see Supplemental Materials). In brief, 20 µl of the plasma samples were protein-precipitated with 80 µl methanol containing all internal standards or were treated for 16 h at 37 °C with 2 µl β-glucuronidase (1,000,000 Units) for deconjugation before protein precipitation with 78 µl methanol containing internal standards. Samples were centrifuged for 20 min, at 4 °C and 17,000 × g, and 40 µl of the supernatants were diluted with 40 µl LC–MS grade water, centrifuged again for 5 min at 4 °C and 17,000 × g and 50 µl supernatant were transferred to LC–MS vials 5 µl of the samples were injected into the LC–MS system.
An Agilent 1290 Infinity II UHPLC coupled with a SCIEX QTRAP6500 + triple quadrupole mass spectrometer was used. Chromatographic separation was achieved on an Agilent Poroshell 120 EC-C18 (1.9 µm, 2.1 × 50 mm) column with A: 0.1% formic acid in water and B: methanol with a flow rate of 0.7 ml/min and a total run time of 8.5 min. Analytes were eluted using a gradient program. The following gradient steps represent gradual changes in % B over time: 5% B from 0 to 0.2 min, 30% B at 2 min, 34% B at 4.8 min, 95% B at 6.5 min, 95% B at 7.5 min and re-equilibrating to 5% B at 7.7 min and 5%B till 8.5 min. A representative chromatogram is shown in supplemental Fig. 2. The scheduled MRM mode was applied for analyte detection in both positive and negative ESI modes (Supplementary Table 4). Calibration curves were constructed with linear regression using weighted (1/x^2) models (detailed information in supplemental methods).
Partial areas under the plasma concentration–time curves from 0 to 3 h (AUC0–3 h), from 0 to 4 h (AUC0–4 h), and from 0 to 8 h (AUC0–8 h) were calculated based on measured concentrations by the linear trapezoidal rule without extrapolation. […] Metabolic ratios (MR) were calculated by dividing the partial AUC of the metabolite by the respective partial AUC of the parent drug. The MRs were used as biomarkers for the individual CYP activities of the study subjects.

[2] = target: T1, Human CYP1A2 (Homo sapiens, UniProt P05177); test: In vitro metabolism by CYP1A2 Supersomes; assay type: in vitro ADME; details: 10 µM substrate, 50 pmol/mL CYP1A2 supersomes, 2 mM NADPH; 1 h (phenacetin), 1 and 4 h (PCB118)
T1 construct: purchased; host or cells: insect cells
T1 sequence (P05177 2-516 limits assumed): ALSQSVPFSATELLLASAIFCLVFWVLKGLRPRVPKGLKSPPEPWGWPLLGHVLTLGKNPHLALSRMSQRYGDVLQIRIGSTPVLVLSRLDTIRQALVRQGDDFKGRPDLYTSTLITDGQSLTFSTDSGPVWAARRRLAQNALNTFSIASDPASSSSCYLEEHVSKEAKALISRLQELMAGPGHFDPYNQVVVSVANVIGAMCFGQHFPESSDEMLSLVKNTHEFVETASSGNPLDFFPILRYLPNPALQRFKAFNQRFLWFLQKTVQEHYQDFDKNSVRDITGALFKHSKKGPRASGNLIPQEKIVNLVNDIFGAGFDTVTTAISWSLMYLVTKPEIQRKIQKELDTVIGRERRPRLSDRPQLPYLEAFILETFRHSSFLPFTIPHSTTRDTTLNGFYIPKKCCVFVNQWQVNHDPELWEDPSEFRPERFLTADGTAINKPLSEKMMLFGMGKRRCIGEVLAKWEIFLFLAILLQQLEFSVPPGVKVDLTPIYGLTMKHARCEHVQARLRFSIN
Protocol: To investigate the metabolism of PCB118 by CYP1A2, incubation assays were conducted using CYP1A2 supersomes in a total reaction volume of 100 µL. Reaction mixtures were assembled on ice. […] Reactions were initiated by the addition of CYP1A2 supersomes.
To assess potential non-enzymatic transformations and confirm NADPH-dependent metabolism, control incubations were performed under the following conditions: buffer and enzyme only (no-substrate control), substrate, buffer, and NADPH without enzyme (no-enzyme control), and substrate, buffer, and enzyme without NADPH (no-NADPH control). Each experimental condition was conducted in triplicate, while control conditions were performed as single replicates.
The resulting supernatants (100 µL) were transferred to LC–MS vials, yielding samples with 80% methanol content for analysis. For the detection of hydroxylated PCB metabolites, reactions were stopped by adding 500 µL methanol, followed by the addition of 50 µL of an internal standard mix (10 ng/mL). Samples were vortexed for 1 min and centrifuged at 4,500 rpm for 10 min. The resulting supernatants were transferred to glass LC vials and evaporated under a nitrogen stream at 45 °C until approximately 50 µL remained. Samples were then reconstituted in 100 µL of 0.1 M ammonium acetate buffer (pH 5.3) before transfer to inserts for LC–MS analysis.
To determine whether PCB118 serves as a substrate for CYP1A2 and could act as a competitive inhibitor for other CYP1A2 substrates, we conducted in vitro metabolism experiments. […] In parallel, CYP1A2-mediated metabolism of PCB118 was assessed. […] The identity of 4-OH-CB107 was verified by comparison with an authentic reference standard, showing identical retention time and spectral characteristics (supplemental Fig. 1).

Clc1ccc(-c2cc(Cl)c(Cl)cc2Cl)cc1Cl [PCB118]
t value [1]: 2,169
β (standardized regression coefficient) [1]: 0,455
CYP1A2-mediated metabolism of the substrate [2]: catalyzed the hydroxylation of PCB118, leading to the formation of 4-OH-CB107
